Test results reported in patent US8912188B2, “Substituted quinoxaline carboxylic acids for the inhibition of PASK” (BioEnergenix, LLC, priority 2011, dated 2014).
pIC50: −log10 of the molar value.

The compounds below were run against T1, PASK (UniProt #Q96RG2; human recombinant N-terminal GST tagged construct, residues 879-1323) (Homo sapiens, UniProt Q96RG2) (assay: PASK ATP Radiochemical Assay). Details: 33P-ATP, Myelin Basic Protein substrate, 120 min at room temperature, read-out: IC50 Kinase Domain.
T1 construct: human recombinant N-terminal GST tagged construct, residues 879-1323; GST (N); host or cells: insect cells
T1 sequence (Q96RG2 879-1323, stated change not applied): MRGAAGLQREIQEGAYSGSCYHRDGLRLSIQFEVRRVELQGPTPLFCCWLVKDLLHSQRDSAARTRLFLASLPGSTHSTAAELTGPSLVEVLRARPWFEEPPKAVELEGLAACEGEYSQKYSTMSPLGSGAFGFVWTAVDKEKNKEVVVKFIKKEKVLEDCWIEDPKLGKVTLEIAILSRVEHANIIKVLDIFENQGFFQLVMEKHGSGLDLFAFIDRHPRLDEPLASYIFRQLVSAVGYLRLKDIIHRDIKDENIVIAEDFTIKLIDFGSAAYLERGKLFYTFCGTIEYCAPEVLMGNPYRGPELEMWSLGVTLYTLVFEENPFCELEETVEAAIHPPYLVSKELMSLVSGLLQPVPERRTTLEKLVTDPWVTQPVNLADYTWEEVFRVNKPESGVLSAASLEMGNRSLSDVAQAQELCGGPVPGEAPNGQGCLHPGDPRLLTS
Assay type: biochemical
Method: (§1) Biochemical Assay for hPASK Activity
PASK ATP Radiochemical Assay
Test compounds in DMSO are then added and the mixture, followed by delivery of ^33P-ATP (specific activity 0.01 μCi/μl final) to initiate the reaction. […] The entire reaction mixture is washed through onto a P81 Phosphocellulose paper and washed three times for 10 minutes in 75 mM phosphoric acid and once in methanol prior to drying and scintillation counting.

CN(c1nc2cc(C(=O)O)ccc2nc1-c1ccc(F)cc1)C1CCCCC1 [Example 108, 3-(Cyclohexyl(methyl)amino)-2-(4-fluorophenyl)quinoxaline-6-carboxylic acid] and CCN(CC)c1nc2cc(C(=O)O)ccc2nc1-c1ccc(F)cc1 [Example 113, 3-(Diethylamino)-2-(4-fluorophenyl)quinoxaline-6-carboxylic acid] cannot be ordered by pIC50: over 5.00 for the first, over 5.00 for the second.

Cc1c[nH]c2ccc(-c3nc4ccc(C(=O)O)cc4nc3N(C)C(C)C)cc12 [Example 86, 3-(Isopropyl(methyl)amino)-2-(3-methyl-1H-indol-5-yl)quinoxaline-6-carboxylic acid] was tested, and the pIC50 was over 5.00.

The compounds below were run against T2, PASK (Invitrogen) (Homo sapiens, UniProt Q96RG2) (assay: PAS Kinase FRET Assay). Details: PAS kinase TR-FRET assay (665 nm/615 nm), 2 hours at 25° C.; read-out: IC50 Kinase Domain.
T2 construct: IC50 Kinase Domain; purchased Invitrogen
T2 sequence (Q96RG2 999-1251 limits assumed): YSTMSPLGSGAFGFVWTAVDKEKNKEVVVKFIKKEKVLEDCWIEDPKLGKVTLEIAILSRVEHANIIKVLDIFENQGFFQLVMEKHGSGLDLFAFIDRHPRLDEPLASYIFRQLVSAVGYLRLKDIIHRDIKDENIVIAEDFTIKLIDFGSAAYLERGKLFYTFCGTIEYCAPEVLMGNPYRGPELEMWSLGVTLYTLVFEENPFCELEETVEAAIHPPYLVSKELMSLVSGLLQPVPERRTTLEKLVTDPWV
Assay type: biochemical
Description: as §1
The aim of the FRET assay is to determine the inhibition potential of test compounds on targeted kinase. This assay platform provides a homogenous screening method for measuring kinase activity by quantitating the amount of phospho-substrate in solution following a kinase reaction.
In the presence of kinase and ATP, the Ulight-peptide is phosphorylated and captured by an anti-phospho-substrate antibody, which brings the Eu chelate donor and Ulight acceptor dyes into close proximity.
Titration of kinase at 1 mM ATP was achieved via the following protocol. […] The contents of the plate were incubated at RT for 1 h. The reaction was stopped by adding 5 μl of stop solution to each test well followed by mixing and incubation at RT for 10 minutes. 5 μl of detection mix (detection antibody diluted in detection buffer) was added; the contents of the plate were mixed and then incubated in the dark for 1 hour at RT. […] The results were graphed to calculate the EC50.
Titration of ATP at the EC50 concentration of kinase to determine ATP Km,app. was performed using the following method. […] The contents of the plate were and incubated at RT for 1 h. The reaction was stopped by adding 5 μl of stop solution to each test well followed by mixing and incubation at RT for 10 minutes. […] (detection antibody diluted in detection buffer) was added; the contents of the plate were mixed and then incubated in the dark for 1 hour at RT. […] The results were graphed to calculate the EC50 as the ATP Km,app.
Compound screening was done via the following method. 10 mM stock solution of test compound in DMSO was prepared by dissolving test compound in DMSO at RT for 1 hour, and then sonicating at 100% output for 8 minutes. If compound is not soluble under this condition, it was diluted to 3 mM. Kinase reaction buffer was prepared containing 10 mM MgCl2, 50 mM HEPES, 1 mM EGTA, 0.01% TWEEN-20, 2 mM DTT. […] As a positive control, 2.5 μl of positive compound was added to assay wells, and 2.5 μl of DMSO to assay wells as vehicle control. Kinase solution was prepared in reaction buffer at 2× final assay concentration. Kinase solution (5 μl) was added to each well of the assay plate. The substrate and ATP solution was prepared in kinase reaction buffer at 4× final assay concentration. The kinase reaction was started by adding 2.5 μl of substrate+ATP mix solution to each well of the assay plate. The plate is mixed on a plate shaker; then covered and allowed to react for 2 hours in the dark at 25° C. without shaking. The reaction was stopped by adding 5 μl of stop solution to each test well followed by mixing and incubation at RT for 10 minutes in the dark. 5 μl of detection mix (detection antibody diluted in detection buffer) was added; the contents of the plate were mixed and then incubated in the dark for 1 hour at RT.

CN(c1nc2cc(C(=O)O)ccc2nc1-c1ccc(F)cc1)C1CCCCC1 [Example 108, 3-(Cyclohexyl(methyl)amino)-2-(4-fluorophenyl)quinoxaline-6-carboxylic acid] and CCN1CCC(N(C)c2nc3cc(C(=O)O)ccc3nc2-c2ccc(F)cc2)CC1 [Example 137, 3-[(1-Ethylpiperidin-4-yl)(methyl)amino]-2-(4-fluorophenyl)quinoxaline-6-carboxylic acid] cannot be ordered by pIC50: over 5.00 for the first, over 5.00 for the second.

Cc1c[nH]c2ccc(-c3nc4ccc(C(=O)O)cc4nc3N(C)C(C)C)cc12 [Example 86, 3-(Isopropyl(methyl)amino)-2-(3-methyl-1H-indol-5-yl)quinoxaline-6-carboxylic acid] and CC(C)N(C)c1nc2cc(C(=O)O)ccc2nc1-c1ccc2cnn(C)c2c1 [Example 5, 3-(Isopropyl(methyl)amino)-2-(1-methyl-1H-indazol-6-yl)quinoxaline-6-carboxylic acid] cannot be ordered by pIC50: over 5.00 for the first, over 5.00 for the second.

CCN(CC)c1nc2cc(C(=O)O)ccc2nc1-c1ccc(F)cc1 [Example 113, 3-(Diethylamino)-2-(4-fluorophenyl)quinoxaline-6-carboxylic acid] and CCN(CC)c1nc2cc(C(=O)O)ccc2nc1-c1cc2ccccc2o1 [Example 27, 2-(1-Benzofuran-2-yl)-3-(diethylamino)quinoxaline-6-carboxylic acid] cannot be ordered by pIC50: over 5.00 for the first, over 5.00 for the second.

C[C@H]1CCCN1c1nc2cc(C(=O)O)c(O)cc2nc1-c1ccc(F)cc1 [Example 132, (S)-2-(4-Fluorophenyl)-7-hydroxy-3-(2-methylpyrrolidin-1-yl)quinoxaline-6-carboxylic acid] and C[C@H]1CNCCN1c1nc2cc(C(=O)O)ccc2nc1-c1ccc(F)cc1 [Example 114, 2-(4-Fluorophenyl)-3-[(2S)-2-methylpiperazin-1-yl]quinoxaline-6-carboxylic acid] cannot be ordered by pIC50: over 5.00 for the first, over 5.00 for the second.

CC(C)N(C)c1nc2cc(C(=O)O)ccc2nc1-c1nc2ccccc2s1 [Example 58, 2-(1,3-Benzothiazol-2-yl)-3-[methyl(propan-2-yl)amino]quinoxaline-6-carboxylic acid] and CC(C)N(C)c1nc2cc(C(=O)O)ccc2nc1-c1ccn[nH]1 [Example 43, 3-(Isopropyl(methyl)amino)-2-(1H-pyrazol-5-yl)quinoxaline-6-carboxylic acid] cannot be ordered by pIC50: over 5.00 for the first, over 5.00 for the second.

O=C(O)c1ccc2nc(-c3cc4ccccc4s3)c(N3CCCCCC3)nc2c1 [Example 54, 3-(Azepan-1-yl)-2-(benzo[b]thiophen-2-yl)quinoxaline-6-carboxylic acid] and O=C(O)c1ccc2nc(-c3ccc4[nH]ncc4c3)c(N3CCCCCC3)nc2c1 [Example 36, 3-(Azepan-1-yl)-2-(1H-indazol-5-yl)quinoxaline-6-carboxylic acid] cannot be ordered by pIC50: over 5.00 for the first, over 5.00 for the second.

O=C(O)c1ccc2nc(-c3cc4cc(F)ccc4o3)c(N3CCCC3)nc2c1 [Example 62, 2-(5-Fluoro-1-benzofuran-2-yl)-3-(pyrrolidin-1-yl)quinoxaline-6-carboxylic acid] and C[C@H]1CCCN1c1nc2cc(C(=O)O)ccc2nc1-c1cc2cc(F)ccc2o1 [Example 41, (S)-2-(5-Fluorobenzofuran-2-yl)-3-(2-methylpyrrolidin-1-yl)quinoxaline-6-carboxylic acid] cannot be ordered by pIC50: over 5.00 for the first, over 5.00 for the second.

CC(=O)N1CCN(c2nc3cc(C(=O)O)ccc3nc2-c2ccc(F)cc2)CC1 [Example 128, 3-(4-Acetylpiperazin-1-yl)-2-(4-fluorophenyl)quinoxaline-6-carboxylic acid] and CCN1CCN(c2nc3cc(C(=O)O)ccc3nc2-c2ccc(F)cc2)[C@@H](C)C1 [Example 138, (S)-3-(4-Ethyl-2-methylpiperazin-1-yl)-2-(4-fluorophenyl)quinoxaline-6-carboxylic acid] cannot be ordered by pIC50: over 5.00 for the first, over 5.00 for the second.

CCC1CCCCN1c1nc2cc(C(=O)O)ccc2nc1-c1ccc(F)cc1 (stereo not shown) [Example 142, 3-(2-Ethylpiperidin-1-yl)-2-(4-fluorophenyl)quinoxaline-6-carboxylic acid] and C[C@H]1CCCN1c1nc2cc(C(=O)O)ccc2nc1-c1ccc2c(c1)OC(F)(F)O2 [Example 34, (S)-2-(2,2-Difluorobenzo[d][1,3]dioxol-5-yl)-3-(2-methylpyrrolidin-1-yl)quinoxaline-6-carboxylic acid] cannot be ordered by pIC50: over 5.00 for the first, over 5.00 for the second.

CC(C)N(C)c1nc2cc(C(=O)O)ccc2nc1-c1ccnc(F)c1 [Example 11, 2-(2-Fluoropyridin-4-yl)-3-(isopropyl(methyl)amino)quinoxaline-6-carboxylic acid] and CC(C)N(C)c1nc2cc(C(=O)O)ccc2nc1-c1cn[nH]c1 [Example 2, 3-(Isopropyl(methyl)amino)-2-(1H-pyrazol-4-yl)quinoxaline-6-carboxylic acid] cannot be ordered by pIC50: over 5.00 for the first, over 5.00 for the second.

First: COc1cc2nc(-c3ccc(F)cc3)c(N(C)C(C)C)nc2cc1C(=O)O [Example 122, 2-(4-Fluorophenyl)-7-methoxy-3-[methyl(propan-2-yl)amino]quinoxaline-6-carboxylic acid]
Second: CC(C)N(C)c1nc2cc(C(=O)O)c(F)cc2nc1-c1ccc(F)cc1 [Example 123, 7-Fluoro-2-(4-fluorophenyl)-3-[methyl(propan-2-yl)amino]quinoxaline-6-carboxylic acid]
The pIC50 of the first is lower: under 5.00 for the first, over 5.00 for the second.

CC(C)N(C)c1nc2cc(C(=O)O)ccc2nc1-c1ccc2c(c1)OCCCO2 [Example 20, 2-(3,4-Dihydro-2H-benzo[b][1,4]dioxepin-7-yl)-3-(isopropyl(methyl)amino)quinoxaline-6-carboxylic acid] and CC(C)N(C)c1nc2cc(C(=O)O)ccc2nc1-c1ccc2c(c1)OC(F)(F)O2 [Example 42, 2-(2,2-Difluorobenzo[d][1,3]dioxol-5-yl)-3-(isopropyl(methyl)amino)quinoxaline-6-carboxylic acid] cannot be ordered by pIC50: over 5.00 for the first, over 5.00 for the second.

C[C@@H](c1ccccc1)N(C)c1nc2cc(C(=O)O)ccc2nc1-c1ccc(F)cc1 [Example 143, (S)-2-(4-Fluorophenyl)-3-(methyl(1-phenylethyl)amino)quinoxaline-6-carboxylic acid] and CC(C)N(C)c1nc2cc(C(=O)O)ccc2nc1-c1ccc(C(F)(F)F)cc1 [Example 136, 3-(Isopropyl(methyl)amino)-2-(4-(trifluoromethyl)phenyl)quinoxaline-6-carboxylic acid] cannot be ordered by pIC50: over 5.00 for the first, over 5.00 for the second.

First: C[C@H]1CCCN1c1nc2cc(C(=O)O)ccc2nc1-c1coc2ccccc12 [Example 82, 2-(1-Benzofuran-3-yl)-3-[(2S)-2-methylpyrrolidin-1-yl]quinoxaline-6-carboxylic acid]
Second: CC(C)N(C)c1nc2cc(C(=O)O)ccc2nc1-c1ccc(N2CCCC2)nc1 [Example 12, 3-(Isopropyl(methyl)amino)-2-(6-(pyrrolidin-1-yl)pyridin-3-yl)quinoxaline-6-carboxylic acid]
The pIC50 of the first is higher: over 5.00 for the first, under 5.00 for the second. The first is the more potent here.

CC(C)N(C)c1nc2cc(C(=O)O)ccc2nc1-c1ccc(NC(=O)OC(C)(C)C)nc1 [Example 10, 2-(6-(tert-Butoxycarbonylamino)pyridin-3-yl)-3-(isopropyl(methyl)amino)quinoxaline-6-carboxylic acid] and CC(C)N(C)c1nc2cc(C(=O)O)ccc2nc1-c1cc2cc(F)ccc2s1 [Example 24, 2-(5-Fluorobenzo[b]thiophen-2-yl)-3-(isopropyl(methyl)amino)quinoxaline-6-carboxylic acid] cannot be ordered by pIC50: over 5.00 for the first, over 5.00 for the second.

In the case of CN(Cc1ccccc1)c1nc2cc(C(=O)O)ccc2nc1-c1ccc2[nH]ncc2c1 [Example 97, 3-(Benzyl(methyl)amino)-2-(1H-indazol-5-yl)quinoxaline-6-carboxylic acid], the pIC50 was over 5.00.
